Assay results from US11401286B2 (Tetra Discovery Partners, LLC, priority 2012, dated 2022).
Structures can show the parent of a compound that is named as a salt.

Biological target: PDE4D7 (Homo sapiens (Human), UniProt Q08499)
Settings: read-out: PDE4D7 IC50

Chain of PDE4D7 (Q08499 other isoform, or with tags, fused parts or gaps): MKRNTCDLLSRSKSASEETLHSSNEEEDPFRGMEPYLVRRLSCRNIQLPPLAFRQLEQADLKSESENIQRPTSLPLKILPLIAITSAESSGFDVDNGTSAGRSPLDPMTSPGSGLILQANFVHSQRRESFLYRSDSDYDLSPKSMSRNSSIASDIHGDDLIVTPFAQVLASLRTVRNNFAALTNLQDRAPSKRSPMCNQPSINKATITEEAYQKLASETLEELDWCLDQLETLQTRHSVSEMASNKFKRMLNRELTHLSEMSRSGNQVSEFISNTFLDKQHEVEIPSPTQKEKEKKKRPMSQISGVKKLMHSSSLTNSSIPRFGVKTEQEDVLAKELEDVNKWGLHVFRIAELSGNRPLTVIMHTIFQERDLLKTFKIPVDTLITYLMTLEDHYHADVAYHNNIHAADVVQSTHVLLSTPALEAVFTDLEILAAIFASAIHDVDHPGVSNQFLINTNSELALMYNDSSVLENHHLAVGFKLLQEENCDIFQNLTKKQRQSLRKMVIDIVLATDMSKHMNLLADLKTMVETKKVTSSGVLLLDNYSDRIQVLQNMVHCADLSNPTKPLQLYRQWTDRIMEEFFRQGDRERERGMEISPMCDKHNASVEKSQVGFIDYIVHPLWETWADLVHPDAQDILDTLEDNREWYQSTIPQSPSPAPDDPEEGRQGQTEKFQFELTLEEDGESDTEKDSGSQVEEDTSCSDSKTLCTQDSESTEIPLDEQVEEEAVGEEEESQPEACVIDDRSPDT

Question: CCc1nc(Nc2ccc(CCCO)cc2)nc(-c2cccc(Cl)c2)n1 [Example 81, 3-(4-((4-(3-Chlorophenyl)-6-ethyl-1,3,5-triazin-2-yl)amino)phenyl)propan-1-ol] was tested. Which IC50 did it give?
Answer: < 1 µM

Same assay, conditions: read-out: PDE4D7 IC50; PDE4D7 without asterisk

Question: With CCc1cc(/N=c2\[nH]cc(CC(N)=O)o2)nc(-c2cccc(Cl)c2)n1 [Example 192, 2-(2-((2-(3-Chlorophenyl)-6-ethylpyrimidin-4-yl)imino)-2,3-dihydrooxazol-5-yl)acetamide] as the compound, how does the IC50 read?
Answer: > 1 µM

Question: Which IC50 does the source give for CCc1cc(Nc2ccc(C(C)(C)C(N)=O)cc2)nc(-c2cccc(Cl)c2)n1 [Example 187, 2-(4-((2-(3-Chlorophenyl)-6-ethylpyrimidin-4-yl)amino)phenyl)-2-methylpropanamide] here?
Answer: > 1 µM

Question: For OCCc1ccc(Nc2nc(C3CCCC3)nc3c2SCCC3)cc1 [Example 283, 2-(4-((2-Cyclopentyl-7,8-dihydro-6H-thiopyrano[3,2-d]pyrimidin-4-yl)amino)phenyl)ethanol], which IC50 is on record?
Answer: < 1 µM

Question: For NC(=O)CCCNc1nc(-c2cccc(Cl)c2)nc2c1CCC2 [Example 178, 4-((2-(3-Chlorophenyl)-6,7-dihydro-5H-cyclopenta[d]pyrimidin-4-yl)amino)butanamide], which IC50 is on record?
Answer: > 1 µM

Question: O=C(O)Cc1ccc(Nc2nc(-c3cccc(Cl)c3)nc3c2S(=O)(=O)CCC3)cc1 [Example 275, 2-(4-((2-(3-chlorophenyl)-5,5-dioxido-7,8-dihydro-6H-thiopyrano[3,2-d]pyrimidin-4-yl)amino)phenyl)acetic acid] was tested. Which IC50 did it give?
Answer: < 1 µM

Question: NC(=O)Cc1ccc(Nc2cc(-c3cccc(Cl)c3)nc3c2CCC3)nc1 [Example 94, 2-(6-((2-(3-Chlorophenyl)-6,7-dihydro-5H-cyclopenta[b]pyridin-4-yl)amino)pyridin-3-yl)acetamide hydrochloride] was tested. Which IC50 did it give?
Answer: > 1 µM

Question: With CCCc1nc(Nc2ccc(C(=O)O)cc2)nc(-c2ccc(Cl)s2)n1 [Example 33, 4-((4-(5-chlorothiophen-2-yl)-6-propyl-1,3,5-triazin-2-yl)amino)benzoic acid] as the compound, how does the IC50 read?
Answer: > 1 µM

Question: For OCCc1cccc(Nc2cc(-c3cccc(Cl)c3)nc3c2CCC3)c1 [Example 102, 2-(3-((2-(3-Chlorophenyl)-6,7-dihydro-5H-cyclopenta[b]pyridin-4-yl)amino)phenyl)ethanol hydrochloride], which IC50 is on record?
Answer: > 1 µM

Question: With OCCc1ccc(Nc2cc(C(F)(F)F)nc(-c3cccc(Cl)c3)n2)cc1 [Example 219, 2-(4-((2-(3-Chlorophenyl)-6-(trifluoromethyl)pyrimidin-4-yl)amino)phenyl)ethanol] as the compound, how does the IC50 read?
Answer: > 1 µM

Question: With NC(=O)Cc1ccc(Nc2nc(C3CCCC3)nc3c2CCC3)cc1 [Example 216, 2-(4-((2-Cyclopentyl-6,7-dihydro-5H-cyclopenta[d]pyrimidin-4-yl)amino)phenyl)acetamide] as the compound, how does the IC50 read?
Answer: < 1 µM

Question: CCOC(=O)Cc1ccc(Nc2cc(CC)nc(-c3cccc(Cl)c3)n2)cc1 [Example 185, Ethyl 2-(4-((2-(3-chlorophenyl)-6-ethylpyrimidin-4-yl)amino)phenyl)acetate] was tested. Which IC50 did it give?
Answer: > 1 µM

Question: Which IC50 does the source give for CC(C)Oc1cc(Nc2ccc(CC(N)=O)cc2)c2c(n1)CCC2 [Example 261, 2-(4-((2-Isopropoxy-6,7-dihydro-5H-cyclopenta[b]pyridin-4-yl)amino)phenyl)acetamide hydrochloride] here?
Answer: > 1 µM

Question: Which IC50 does the source give for OCCCc1ccc(Nc2cc(-c3cccc(Cl)c3)nc3c2CCC3)cc1 [Example 85, 3-(4-((2-(3-Chlorophenyl)-6,7-dihydro-5H-cyclopenta[b]pyridin-4-yl)amino)phenyl)propan-1-ol hydrochloride] here?
Answer: < 1 µM

Question: How did the IC50 turn out when O=S1(=O)CCc2nc(-c3cccc(Cl)c3)nc(Nc3ccc(CCO)cc3)c21 [Example 281, 2-(3-Chlorophenyl)-4-((4-(2-hydroxyethyl)phenyl)amino)-6,7-dihydrothieno[3,2-d]pyrimidine 5,5-dioxide] was run?
Answer: < 1 µM

Question: How did the IC50 turn out when FC(F)(F)c1cc(Cc2ccc(Cn3cc(Cl)cn3)cc2)nc(-c2cccc(Cl)c2)n1 [Example 218, 4-(4-((4-Chloro-1H-pyrazol-1-yl)methyl)benzyl)-2-(3-chlorophenyl)-6-(trifluoromethyl)pyrimidine] was run?
Answer: > 1 µM

Question: Which IC50 does the source give for OCCc1ccc(Cc2cc(C(F)(F)F)nc(-c3cccc(Cl)c3)n2)cc1 [Example 205, 2-(4-((2-(3-Chlorophenyl)-6-(trifluoromethyl)pyrimidin-4-yl)methyl)phenyl)ethanol] here?
Answer: > 1 µM

Question: CCc1cc(Cc2ccc(CC(=O)O)cc2)nc(C2CCCC2)n1 [Example 224, 2-(4-((2-Cyclopentyl-6-ethylpyrimidin-4-yl)methyl)phenyl)acetic acid] was tested. Which IC50 did it give?
Answer: > 1 µM

Question: For NC(=O)Cc1ccc(Cc2cc(C3CC3)nc(-c3cccc(Cl)c3)n2)cc1 [Example 209, 2-(4-((2-(3-chlorophenyl)-6-cyclopropylpyrimidin-4-yl)methyl)phenyl)acetamide], which IC50 is on record?
Answer: > 1 µM

Question: CCc1c(C)nc(-c2ccc(Cl)s2)nc1NCc1ccc(B(O)O)cc1 [Example 311, [4-[[[2-(5-Chloro-2-thienyl)-5-ethyl-6-methyl-pyrimidin-4-yl]amino]methyl]phenyl]boronic acid] was tested. Which IC50 did it give?
Answer: > 1 µM

Question: With C[C@@H](O)Cc1ccc(Nc2nc(-c3cccc(Cl)c3)nc3c2CCC3)cc1 [Example 172, (R)-1-(4-((2-(3-Chlorophenyl)-6,7-dihydro-5H-cyclopenta[d]pyrimidin-4-yl)amino)phenyl)propan-2-ol] as the compound, how does the IC50 read?
Answer: > 1 µM

Question: With CCc1nc(Oc2ccc(CC(N)=O)cc2)nc(-c2cccc(Cl)c2)n1 [Example 61, 2-(4-((4-(3-chlorophenyl)-6-ethyl-1,3,5-triazin-2-yl)oxy)phenyl)acetamide] as the compound, how does the IC50 read?
Answer: > 1 µM

Question: For CCc1c(C)nc(-c2ccc(Cl)s2)nc1Nc1ccc(CS(C)(=O)=O)cc1 [Example 317, 2-(5-chloro-2-thienyl)-5-ethyl-6-methyl-N-[4-(methylsulfonylmethyl)phenyl]pyrimidin-4-amine], which IC50 is on record?
Answer: > 1 µM

Question: Which IC50 does the source give for Fc1ccc(Nc2cc(-c3cccc(Cl)c3)nc3c2CCC3)cc1 [Example 290, 2-(3-Chlorophenyl)-N-(4-fluorophenyl)-6,7-dihydro-5H-cyclopenta[b]pyridin-4-amine hydrochloride] here?
Answer: > 1 µM

Question: With O=S1(=O)CCCc2nc(-c3ccccc3)nc(Nc3ccc(CCO)cc3)c21 [Example 268, 4-((4-(2-hydroxyethyl)phenyl)amino)-2-phenyl-7,8-dihydro-6H-thiopyrano[3,2-d]pyrimidine 5,5-dioxide] as the compound, how does the IC50 read?
Answer: < 1 µM

Question: Which IC50 does the source give for NC(=O)Cc1cccc(Nc2cc(-c3cccc(Cl)c3)nc3c2CCC3)c1 [Example 101, 2-(3-((2-(3-Chlorophenyl)-6,7-dihydro-5H-cyclopenta[b]pyridin-4-yl)amino)phenyl)acetamide hydrochloride] here?
Answer: > 1 µM

Question: For O=C(O)Cc1ccc(Nc2cc(C3CC3)nc(-c3cccc(Cl)c3)n2)nc1 [Example 213, 2-(6-((2-(3-Chlorophenyl)-6-cyclopropylpyrimidin-4-yl)amino)pyridin-3-yl)acetic acid], which IC50 is on record?
Answer: > 1 µM

Question: Cc1ccc(Cc2cc(-c3cccc(Cl)c3)nc3c2CCC3)cc1 [Example 289, 2-(3-Chlorophenyl)-4-(4-methylbenzyl)-6,7-dihydro-5H-cyclopenta[b]pyridine hydrochloride] was tested. Which IC50 did it give?
Answer: > 1 µM

Question: How did the IC50 turn out when O=C(O)Cc1ccc(Cc2cc(C(F)(F)F)nc(OC3CCCC3)n2)cc1 [Example 200, 2-(4-((2-(Cyclopentyloxy)-6-(trifluoromethyl)pyrimidin-4-yl)methyl)phenyl)acetic acid] was run?
Answer: > 1 µM
